# Reference: patent US20090137549A1, “Novel compounds useful for the treatment of degenerative & inflamatory diseases” (priority 2006, published 2009)
# pIC50: −log10 of the molar value.
# Target: PDE1A (Homo sapiens, UniProt P54750)
# Assay: PDE1A dose response, Cyclic Nucleotide Phosphodiesterase Assay Kit from Biomol (colorimetric)
# Format: biochemical
# Settings: purified PDE1A enzyme, 100 μM cAMP
# Source text: For the dose response and further screening, we used the Cyclic Nucleotide
# Phosphodiesterase Assay Kit from Biomol, a colorimetric, non-radioactive assay. The basis for the assay is the cleavage of cAMP by PDE1A. The 5′AMP is further cleaved into the nucleoside and phosphate by the enzyme 5′-nucleotidase (catnr KI-307). The phosphate released due to enzymatic cleavage is quantified using BIOMOL GREEN™ reagent (catnr AK-111) in a modified Malachite Green assay^1,2. A PDE1A inhibitor will result in a decrease of the signal.
# For the enzymatic reaction a mix of 25 μL with purified PDE1A enzyme, 100 μM cAMP, 5′Nucleotidase and the compound is made in a clear 384-plate. The reaction buffer is Tris 20 mM pH 7.4, 4 μg/mL calmodulin, 3 mM MgCl2, 1.5 mM CaCl2, 0.2 mg/mL BSA and 0.001% Brij-35. After an incubation of 45 minutes at 37° C., the reaction is stopped by the addition of 50 μL BIOMOL GREEN™ reagent. After 30 minutes incubation at room temperature, the readout is performed on the Envision (absorption at 615 nm).
# All compounds are tested in duplicate starting from […] followed by a 1/3 serial dilution, 8 points (20 μM-6.67 μM-2.22 μM-740 nM-247 nM-82 nM-27 nM-9 nM) in a final concentration of 1% DMSO. As the positive dose response control compound Vardenafil is used. For the calculation of z′ and PIN values 10 μM Vardenafil is used as positive control (100% inhibition) and 1% DMSO as negative control (0% inhibition).
# The following compounds have been or can be prepared according to the synthetic methods described above. For the purpose of Table 7 below, PDE1A activity of each compound, which can be determined using the assay methods described herein, is expressed as follows: […]
row,Structure (SMILES),pIC50
1,"O=C(NCCN1CCOCC1)N1CC(c2nc3c(cnn3C3CCCCC3)c(=O)[nH]2)C1 [Example 61, 3-(1-cyclohexyl-4-oxo-4,5-dihydro-1H-pyrazolo[3,4-d]pyrimidin-6-yl)-N-(2-morpholinoethyl)azetidine-1-carboxamide]",6.30 to 7.00
2,"O=C(NCCc1c[nH]cn1)N1CC(c2nc3c(cnn3C3CCCCC3)c(=O)[nH]2)C1 [Example 62, N-(2-(1H-imidazol-4-yl)ethyl)-3-(1-cyclohexyl-4-oxo-4,5-dihydro-1H-pyrazolo[3,4-d]pyrimidin-6-yl)azetidine-1-carboxamide]",6.30 to 7.00
3,"COc1ccc(OC)c(S(=O)(=O)N2CCCC(c3nc4c(cnn4C4CCCCC4)c(=O)[nH]3)C2)c1 (stereo not shown) [Example 63, 1-cyclohexyl-6-(1-(2,5-dimethoxyphenylsulfonyl)piperidin-3-yl)-1H-pyrazolo[3,4-d]pyrimidin-4(5H)-one]",6.30 to 7.00
4,"Cc1nn(C2CCCCC2)c2nc(C3CCCN(C(=O)c4cccc(NS(C)(=O)=O)c4)C3)[nH]c(=O)c12 (stereo not shown) [Example 64, N-(3-(3-(1-cyclohexyl-3-methyl-4-oxo-4,5-dihydro-1H-pyrazolo[3,4-d]pyrimidin-6-yl)piperidine-1-carbonyl)phenyl)methanesulfonamide]",6.30 to 7.00
5,"COc1ccccc1C(=O)N1CCCC(c2nc3c(cnn3-c3ccccc3)c(=O)[nH]2)C1 (stereo not shown) [Example 65, 6-(1-(2-methoxybenzoyl)piperidin-3-yl)-1-phenyl-1H-pyrazolo[3,4-d]pyrimidin-4(5H)-one]",6.30 to 7.00
6,"COC(=O)c1ccc(C(=O)N2CCCC(c3nc4c(c(C)nn4C4CCCCC4)c(=O)[nH]3)C2)cc1 (stereo not shown) [Example 66, methyl 4-(3-(1-cyclohexyl-3-methyl-4-oxo-4,5-dihydro-1H-pyrazolo[3,4-d]pyrimidin-6-yl)piperidine-1-carbonyl)benzoate]",6.30 to 7.00
7,"CN(C)c1ccc(C(=O)N2CCCC(c3nc4c(cnn4-c4ccccc4)c(=O)[nH]3)C2)cc1 (stereo not shown) [Example 67, 6-(1-(4-(dimethylamino)benzoyl)piperidin-3-yl)-1-phenyl-1H-pyrazolo[3,4-d]pyrimidin-4(5H)-one]",6.30 to 7.00

# Second part, the molecule after the results:
row,pIC50,Structure (SMILES)
1,6.30 to 7.00,"CCCCS(=O)(=O)Nc1cccc(C(=O)N2CCCC(c3nc4c(c(C)nn4C4CCCCC4)c(=O)[nH]3)C2)c1 (stereo not shown) [Example 55, N-(3-(3-(1-cyclohexyl-3-methyl-4-oxo-4,5-dihydro-1H-pyrazolo[3,4-d]pyrimidin-6-yl)piperidine-1-carbonyl)phenyl)butane-1-sulfonamide]"
2,6.30 to 7.00,"COc1ccc(S(=O)(=O)N2CCCC(c3nc4c(c(C)nn4C4CCCCC4)c(=O)[nH]3)C2)cc1 (stereo not shown) [Example 56, 1-cyclohexyl-6-(1-(4-methoxyphenylsulfonyl)piperidin-3-yl)-3-methyl-1H-pyrazolo[3,4-d]pyrimidin-4(5H)-one]"
3,6.30 to 7.00,"COc1ccccc1C(=O)N1CCCC(c2nc3c(c(C)nn3C3CCCCC3)c(=O)[nH]2)C1 (stereo not shown) [Example 57, 1-cyclohexyl-6-(1-(2-methoxybenzoyl)piperidin-3-yl)-3-methyl-1H-pyrazolo[3,4-d]pyrimidin-4(5H)-one]"
4,6.30 to 7.00,"Cc1nn(C2CCCCC2)c2nc(C3CCCN(C(=O)c4cccc5c4OC(F)(F)O5)C3)[nH]c(=O)c12 (stereo not shown) [Example 58, 1-cyclohexyl-6-(1-(2,2-difluorobenzo[d][1,3]dioxole-4-carbonyl)piperidin-3-yl)-3-methyl-1H-pyrazolo[3,4-d]pyrimidin-4(5H)-one]"
5,6.30 to 7.00,"Cc1nn(C2CCCCC2)c2nc(C3CCCN(C(=O)c4ccc(N(C)C)cc4)C3)[nH]c(=O)c12 (stereo not shown) [Example 59, 1-cyclohexyl-6-(1-(4-(dimethylamino)benzoyl)piperidin-3-yl)-3-methyl-1H-pyrazolo[3,4-d]pyrimidin-4(5H)-one]"
6,6.30 to 7.00,"CN(C)c1ccc(C(=O)N2CCCC(c3nc4c(cnn4C4CCCCC4)c(=O)[nH]3)C2)cc1 (stereo not shown) [Example 60, 1-cyclohexyl-6-(1-(4-(dimethylamino)benzoyl)piperidin-3-yl)-1H-pyrazolo[3,4-d]pyrimidin-4(5H)-one]"
